“And” between values parts separate entries of the source, which are not always exact repeats. Equal entries are not always repeated. Inconclusive results and toxic doses are left out.
System: B6C3F1 mice, B16 melanoma ip, median survival T/C
Experiment: NCI In Vivo Anticancer Drug Screen. Data for tumor model B16 Melanoma (intraperitoneal) in B6C3F1 mice
Details: endpoint: median survival time, higher = longer survival
Procedure, shortened: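 Readout: survival or tumor size in treated mice relative to vehicle controls (T/C). Model uses transplantable tumors grown in mice.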

[1] = dose: 7.5 mg/kg/injection, schedule: Q01DX009 (ip), vehicle: Klucel (hydroxypropylcellulose) (HPC)

## CC[C@@H](C)[C@@H]1NC(=O)C(NC(=O)C(CC(C)C)N(C)C(=O)C2CCCN2C(=O)C(C)O)C(C)OC(=O)C(Cc2ccc(OC)cc2)N(C)C(=O)C2CCCN2C(=O)C(CC(C)C)NC(=O)C(C)C(=O)C(C(C)C)OC(=O)C[C@H]1O (stereo partly specified)
dose: 5.0 micrograms/kg/injection, schedule: Q01DX009 (ip), vehicle: distilled water + alcohol
  T/C: 102 % of control
dose: 10.0 micrograms/kg/injection, schedule: Q01DX009 (ip), vehicle: distilled water + alcohol
  T/C: 111 % of control and 112 % of control
dose: 10.0 micrograms/kg/injection, schedule: Q01DX009 (ip), vehicle: other
  T/C: 120 % of control
dose: 20.0 micrograms/kg/injection, schedule: Q01DX005 (ip), vehicle: other
  T/C: 120 % of control
dose: 20.0 micrograms/kg/injection, schedule: Q01DX005 (iv), vehicle: other
  T/C: 105 % of control
dose: 20.0 micrograms/kg/injection, schedule: Q01DX005 (sc), vehicle: other
  T/C: 111 % of control
dose: 20.0 micrograms/kg/injection, schedule: Q01DX009 (ip), vehicle: distilled water + alcohol
  T/C: 117 % of control and 123 % of control
dose: 40.0 micrograms/kg/injection, schedule: Q01DX005 (iv), vehicle: other
  T/C: 101 % of control and 104 % of control
dose: 40.0 micrograms/kg/injection, schedule: Q01DX005 (sc), vehicle: other
  T/C: 108 % of control
dose: 40.0 micrograms/kg/injection, schedule: Q01DX009 (ip), vehicle: distilled water + alcohol
  T/C: 124 % of control
dose: 40.0 micrograms/kg/injection, schedule: Q01DX009 (ip), vehicle: other
  T/C: 153 % of control
dose: 40.0 micrograms/kg/injection, schedule: Q03HX008 (ip), vehicle: saline
  T/C: 124 % of control
dose: 71.0 micrograms/kg/injection, schedule: Q01DX009 (ip), vehicle: other
  T/C: 151 % of control
dose: 80.0 micrograms/kg/injection, schedule: Q01DX005 (ip), vehicle: other
  T/C: 122 % of control
dose: 80.0 micrograms/kg/injection, schedule: Q01DX005 (iv), vehicle: other
  T/C: 112 % of control and 96 % of control
dose: 80.0 micrograms/kg/injection, schedule: Q01DX005 (oral), vehicle: other
  T/C: 100 % of control
dose: 80.0 micrograms/kg/injection, schedule: Q01DX005 (sc), vehicle: other
  T/C: 113 % of control and 103 % of control
dose: 80.0 micrograms/kg/injection, schedule: Q01DX009 (ip), vehicle: distilled water + alcohol
  T/C: 153 % of control
dose: 80.0 micrograms/kg/injection, schedule: Q01DX009 (ip), vehicle: other
  T/C: 163 % of control
dose: 106.0 micrograms/kg/injection, schedule: Q01DX009 (ip), vehicle: other
  T/C: 159 % of control
dose: 160.0 micrograms/kg/injection, schedule: Q01DX001 (iv), vehicle: other
  T/C: 102 % of control
dose: 160.0 micrograms/kg/injection, schedule: Q01DX001 (sc), vehicle: other
  T/C: 106 % of control
dose: 160.0 micrograms/kg/injection, schedule: Q01DX005 (iv), vehicle: other
  T/C: 104 % of control and 106 % of control
dose: 160.0 micrograms/kg/injection, schedule: Q01DX005 (oral), vehicle: other
  T/C: 119 % of control and 105 % of control
dose: 160.0 micrograms/kg/injection, schedule: Q01DX005 (sc), vehicle: other
  T/C: 110 % of control and 122 % of control
dose: 160.0 micrograms/kg/injection, schedule: Q01DX009 (ip), vehicle: distilled water + alcohol
  T/C: 162 % of control and 164 % of control
dose: 160.0 micrograms/kg/injection, schedule: Q01DX009 (ip), vehicle: other
  T/C: 163 % of control
dose: 160.0 micrograms/kg/injection, schedule: Q01DX009 (ip), vehicle: saline
  T/C: 151 % of control
dose: 320.0 micrograms/kg/injection, schedule: Q01DX001 (iv), vehicle: other
  T/C: 99 % of control and 106 % of control
dose: 320.0 micrograms/kg/injection, schedule: Q01DX001 (oral), vehicle: other
  T/C: 99 % of control
dose: 320.0 micrograms/kg/injection, schedule: Q01DX001 (sc), vehicle: other
  T/C: 102 % of control
dose: 320.0 micrograms/kg/injection, schedule: Q01DX005 (ip), vehicle: other
  T/C: 123 % of control
dose: 320.0 micrograms/kg/injection, schedule: Q01DX005 (iv), vehicle: other
  T/C: 104 % of control and 106 % of control
dose: 320.0 micrograms/kg/injection, schedule: Q01DX005 (oral), vehicle: other
  T/C: 104 % of control and 105 % of control
dose: 320.0 micrograms/kg/injection, schedule: Q01DX005 (sc), vehicle: other
  T/C: 94 % of control and 105 % of control
dose: 640.0 micrograms/kg/injection, schedule: Q01DX001 (ip), vehicle: other
  T/C: 116 % of control
dose: 640.0 micrograms/kg/injection, schedule: Q01DX001 (iv), vehicle: other
  T/C: 102 % of control and 108 % of control
dose: 640.0 micrograms/kg/injection, schedule: Q01DX001 (oral), vehicle: other
  T/C: 99 % of control
dose: 640.0 micrograms/kg/injection, schedule: Q01DX001 (sc), vehicle: other
  T/C: 117 % of control and 102 % of control
dose: 640.0 micrograms/kg/injection, schedule: Q01DX005 (oral), vehicle: other
  T/C: 100 % of control and 107 % of control
dose: 1280.0 micrograms/kg/injection, schedule: Q01DX001 (ip), vehicle: other
  T/C: 124 % of control
dose: 1280.0 micrograms/kg/injection, schedule: Q01DX001 (ip), vehicle: saline
  T/C: 117 % of control
dose: 1280.0 micrograms/kg/injection, schedule: Q01DX001 (iv), vehicle: other
  T/C: 118 % of control and 106 % of control
dose: 1280.0 micrograms/kg/injection, schedule: Q01DX001 (oral), vehicle: other
  T/C: 103 % of control and 108 % of control
dose: 1280.0 micrograms/kg/injection, schedule: Q01DX001 (sc), vehicle: other
  T/C: 118 % of control and 100 % of control
dose: 1280.0 micrograms/kg/injection, schedule: Q01DX005 (oral), vehicle: other
  T/C: 97 % of control and 102 % of control
dose: 2560.0 micrograms/kg/injection, schedule: Q01DX001 (oral), vehicle: other
  T/C: 114 % of control and 100 % of control
dose: 2560.0 micrograms/kg/injection, schedule: Q01DX001 (sc), vehicle: other
  T/C: 112 % of control
dose: 2560.0 micrograms/kg/injection, schedule: Q01DX005 (oral), vehicle: other
  T/C: 99 % of control and 100 % of control
dose: 5120.0 micrograms/kg/injection, schedule: Q01DX001 (oral), vehicle: other
  T/C: 101 % of control and 105 % of control
dose: 10240.0 micrograms/kg/injection, schedule: Q01DX001 (oral), vehicle: other
  T/C: 105 % of control

## S=c1nc[nH]c2nc[nH]c12
dose: 6.25 mg/kg/injection, schedule: Q01DX009 (ip), vehicle: Klucel (hydroxypropylcellulose) (HPC)
  T/C: 100 % of control
[1]
  T/C: 97 % of control
dose: 12.5 mg/kg/injection, schedule: Q01DX009 (ip), vehicle: Klucel (hydroxypropylcellulose) (HPC)
  T/C: 94 % of control
dose: 25.0 mg/kg/injection, schedule: Q01DX009 (ip), vehicle: Klucel (hydroxypropylcellulose) (HPC)
  T/C: 96 % of control

## O=C1CCC2=C3C4CCCC5OC6CC(=O)CCC6=C(C6CCCC(OC2C1)C36)C54 (stereo unspecified)
dose: 50.0 mg/kg/injection, schedule: Q01DX009 (ip), vehicle: saline
  T/C: 102 % of control
dose: 100.0 mg/kg/injection, schedule: Q01DX009 (ip), vehicle: saline
  T/C: 102 % of control
dose: 200.0 mg/kg/injection, schedule: Q01DX009 (ip), vehicle: saline
  T/C: 97 % of control
dose: 400.0 mg/kg/injection, schedule: Q01DX009 (ip), vehicle: saline
  T/C: 96 % of control

## c1ccc([Te][Te]c2ccccc2)cc1
dose: 3.0 mg/kg/injection, schedule: Q01DX009 (ip), vehicle: saline with Tween-80
  T/C: 92 % of control and 94 % of control
dose: 6.0 mg/kg/injection, schedule: Q01DX009 (ip), vehicle: saline with Tween-80
  T/C: 98 % of control and 100 % of control and 106 % of control
dose: 12.0 mg/kg/injection, schedule: Q01DX009 (ip), vehicle: saline with Tween-80
  T/C: 112 % of control and 122 % of control and 98 % of control
dose: 24.0 mg/kg/injection, schedule: Q01DX009 (ip), vehicle: saline with Tween-80
  T/C: 114 % of control and 121 % of control and 102 % of control
dose: 48.0 mg/kg/injection, schedule: Q01DX009 (ip), vehicle: saline with Tween-80
  T/C: 113 % of control

## COC1C(O)CC(OC2CC(Oc3cc4cc5c(c(O)c4c(O)c3C)C(=O)[C@@H](OC3CC(OC4CC(OC6CC(C)(O)C(OC(C)=O)C(C)O6)C(O)C(C)O4)C(O)C(C)O3)[C@H]([C@H](OC)C(=O)[C@@H](O)[C@@H](C)O)C5)OC(C)C2OC(C)=O)OC1C (stereo partly specified)
dose: 0.01 mg/kg/injection, schedule: Q01DX009 (ip), vehicle: Klucel (hydroxypropylcellulose) (HPC)
  T/C: 165 % of control
dose: 0.04 mg/kg/injection, schedule: Q01DX009 (ip), vehicle: Klucel (hydroxypropylcellulose) (HPC)
  T/C: 151 % of control
dose: 0.08 mg/kg/injection, schedule: Q01DX009 (ip), vehicle: Klucel (hydroxypropylcellulose) (HPC)
  T/C: 196 % of control
dose: 0.16 mg/kg/injection, schedule: Q01DX009 (ip), vehicle: Klucel (hydroxypropylcellulose) (HPC)
  T/C: 171 % of control

## C=C1C(=O)C2=CC1CCC(=O)C1(C)CCC(OC(C)=O)C(C)(C)C1CC2O (stereo unspecified)
dose: 1.88 mg/kg/injection, schedule: Q01DX009 (ip), vehicle: Klucel (hydroxypropylcellulose) (HPC)
  T/C: 96 % of control
dose: 3.75 mg/kg/injection, schedule: Q01DX009 (ip), vehicle: Klucel (hydroxypropylcellulose) (HPC)
  T/C: 104 % of control and 106 % of control
[1]
  T/C: 111 % of control and 89 % of control
dose: 15.0 mg/kg/injection, schedule: Q01DX009 (ip), vehicle: Klucel (hydroxypropylcellulose) (HPC)
  T/C: 114 % of control and 100 % of control
dose: 30.0 mg/kg/injection, schedule: Q01DX009 (ip), vehicle: Klucel (hydroxypropylcellulose) (HPC)
  T/C: 118 % of control and 104 % of control

## Nc1ncnc2c1ncn2C1OCC(O)C1O (stereo unspecified)
dose: 12.5 mg/kg/injection, schedule: Q01DX009 (ip), vehicle: saline
  T/C: 118 % of control
dose: 25.0 mg/kg/injection, schedule: Q01DX009 (ip), vehicle: saline
  T/C: 121 % of control
dose: 100.0 mg/kg/injection, schedule: Q01DX009 (ip), vehicle: suspension in saline
  T/C: 124 % of control
